From publication PMC10819809 (Microorganisms, 2024)
Converted amounts (≈) assume the structure as drawn. Square brackets hold non-standard residues; d marks the D form. Peptide text beside a SMILES is read from it.

What was measured:
[1] = tested on: MDR-TB; format: cell-based, Mycobacterium tuberculosis; design: key: Cord formation like wild type (without peptide) was classified as “normal”; no cord formation was detected, and they were classified as “not observed”; conditions: 10 µg/mL peptide; Nikon Ni-E microscope
[2] = tested on: M. tuberculosis H37Rv; conditions: microdilution broth, 96-well, 2 × 10^5 CFU/mL, 37 °C 14 days, resazurin 48 h; conducted twice with three technical replicates each
[3] = tested on: M. tuberculosis H37Rv; format: cell-based, Mycobacterium tuberculosis; design: key to Cord Formation at 10 µg/mL, H37Rv: Cord formation like wild type (without peptide) was classified as “normal”; no cord formation was detected, and they were classified as “not observed”; conditions: for Cord Formation at 10 µg/mL, H37Rv: 10 µg/mL peptide, Nikon Ni-E microscope
[4] = tested on: M. tuberculosis; format: cell-based, Mycobacterium tuberculosis; conditions: for TTP Values at Different Peptide Concentrations, 30 µg/mL: purified peptide 30 µg/mL, MGIT, BD BACTEC MGIT 320, TB alone 12 d 4 h
[5] = tested on: MTB; conditions: peptide 14D combined with another peptide; clinical trial, 255 samples from adults, routine test; cited from earlier work

| Compound | Cord Formation at 10 µg/mL, MDR-TB [1] | MIC in µg/mL, H37Rv [2] | Cord Formation at 10 µg/mL, H37Rv [3] | TTP Values at Different Peptide Concentrations, 30 µg/mL [4] | increase in sample positivity rates [5] | effect on cord formation ([3]; 1 and 10 µg/mL peptide) | reduction of TTP compared to the wild-type peptide 14D ([4]; 3 µg/mL purified peptide) | reduction of TTP relative to the untreated control ([4]; 3 µg/mL purified peptide) | prolongation of TTP compared to the wild type ([4]; 3 µg/mL purified peptide) |
| --- | --- | --- | --- | --- | --- | --- | --- | --- | --- |
| CC[C@@H](C)[C@@H](NC(=O)[C@@H](CCCCN)NC(=O)[C@H](N)Cc1c[nH]c2ccccc12)C(=O)N[C@@H](C(=O)N[C@H](Cc1ccccc1)C(=O)NCC(=O)N[C@H](Cc1c[nH]c2ccccc12)C(=O)N[C@H](CCCNC(=N)N)C(=O)N[C@H](CCCNC(=N)N)C(N)=O)C(C)C [wkivfGwrr] (H-[dW][dK][dI][dV][dF]G[dW][dR][dR]-NH2; N-terminus assumed) | normal | 20 µg/mL (≈ 16 µM) | normal | neg (55 d) |  |  |  |  |  |
| CC[C@@H](C)[C@@H](NC(=O)[C@@H](CCCCN)NC(=O)[C@H](N)Cc1c[nH]c2ccccc12)C(=O)N[C@@H](C(=O)N[C@H](Cc1ccccc1)C(=O)N[C@H](CC(N)=O)C(=O)N[C@H](Cc1c[nH]c2ccccc12)C(=O)N[C@H](CCCNC(=N)N)C(=O)N[C@H](CCCNC(=N)N)C(N)=O)C(C)C [wkivfnwrr] (H-[dW][dK][dI][dV][dF][dN][dW][dR][dR]-NH2; N-terminus assumed) | normal | 20 µg/mL (≈ 15.3 µM) | normal |  |  |  |  |  |  |
| CC[C@@H](C)[C@@H](NC(=O)[C@@H](CCCCN)NC(=O)[C@H](N)Cc1c[nH]c2ccccc12)C(=O)N[C@@H](C(=O)N[C@H](Cc1ccccc1)C(=O)N[C@H](Cc1c[nH]c2ccccc12)C(=O)N[C@H](Cc1c[nH]c2ccccc12)C(=O)N[C@H](CCCNC(=N)N)C(=O)N[C@H](CCCNC(=N)N)C(N)=O)C(C)C [peptide 14D] (H-[dW][dK][dI][dV][dF][dW][dW][dR][dR]-NH2) | not observed | >50 µg/mL | not observed |  | 46% | diminish cord formation |  |  |  |
| CC[C@@H](C)[C@@H](NC(=O)[C@@H](CCCCN)NC(=O)[C@H](N)Cc1c[nH]c2ccccc12)C(=O)N[C@H](CO)C(=O)N[C@H](Cc1ccccc1)C(=O)N[C@H](Cc1c[nH]c2ccccc12)C(=O)N[C@H](Cc1c[nH]c2ccccc12)C(=O)N[C@H](CCCNC(=N)N)C(=O)N[C@H](CCCNC(=N)N)C(N)=O [wkisfwwrr] (H-[dW][dK][dI][dS][dF][dW][dW][dR][dR]-NH2; N-terminus assumed) | normal | 20 µg/mL (≈ 14.7 µM) | normal |  |  |  |  |  |  |
| NH2-wkivfiwrr-CONH2 [14D, position 6 w substituted by i, C-terminal amidated] |  |  |  |  |  |  | 25 h | 56 h |  |
| CC[C@@H](C)[C@@H](NC(=O)[C@@H](CCCCN)NC(=O)[C@H](N)Cc1c[nH]c2ccccc12)C(=O)N[C@@H](C(=O)N[C@H](Cc1ccccc1)C(=O)N[C@H](CC(=O)O)C(=O)N[C@H](Cc1c[nH]c2ccccc12)C(=O)N[C@H](CCCNC(=N)N)C(=O)N[C@H](CCCNC(=N)N)C(N)=O)C(C)C [wkivfdwrr] (H-[dW][dK][dI][dV][dF][dD][dW][dR][dR]-NH2) | not observed | 20 µg/mL (≈ 15.3 µM) | not observed | neg (55 d) |  |  |  |  | approximately 22 days |
